What is called IC50 is the midpoint of a concentration-inhibition curve. A lower IC50 goes with greater potency in that assay.

The target in one test is T1, PARP2 (Homo sapiens, UniProt Q9UGN5).
T1 construct: purchased BPS 80502
Kind of test: Determination of PARP2 enzyme (histone-coated plate, Biotin-NAD+). The format is biochemical. As to the method: • 1.2.1 Preparation of buffer solution: PBST: 1x PBS, 0.05% Tween-20; blocking solution: 1x PBS, 0.05% Tween-20, 5% BSA; reaction buffer solution: 50 mM HEPES (pH 7.5), 0.002% Tween-20, 0.1% BSA, 100 mM NaCl, 2mM DTT. • 1.2.2 Coating: A 100 ng/mL Histone coating solution was prepared by using 1x PBS, 25 uL of the coating solution was transferred to a 384-well reaction plate, and the reaction plate was coated overnight at 4°C. • 1.2.3 Washing: After the coating was completed, the coating solution was discarded, and the reaction plate was washed with the PBST solution by means of transferring 50uL of the PBST solution to the 384-well reaction plate, letting it stand for 5 min, discarding the washing solution, refilling the reaction plate, and repeating the washing process 3 times. Finally, the reaction plate was tapped dry and the next step of blocking was proceeded with. • 1.2.4 Blocking: 50 uL of the blocking solution was transferred to the 384-well reaction plate and set for 1 h. • 1.2.5 Washing: After the blocking was completed, the blocking solution was discarded, the reaction plate was washed 3 times with the PBST solution according to the method in Step 2, and the reaction plate was tapped dry. • 1.2.6 A 25/10× PARP2 solution was prepared, then 10 µL of the PARP2 solution was transferred to the 384-well reaction plate.

A further test deals with T2, PARP5A (Homo sapiens, UniProt O95271).
T2 construct: purchased BPS 80504
The test can be described thus: Determination of PARP5A enzyme (histone-coated plate, Biotin-NAD+). In kind it is biochemical. As to the method: • 1.3.1 Preparation of buffer solution solution: PBST: 1x PBS, 0.05% Tween-20; blocking solution: 1x PBS, 0.05% Tween-20, 5% BSA; reaction buffer solution: 50 mM HEPES (pH 7.5), 0.002% Tween-20, 0.1% BSA, 100 mM NaCl, 2mM DTT. • 1.3.2 Coating: A 100 ng/mL Histone coating solution was prepared by using 1x PBS, 25 uL of the coating solution was transferred to a 384-well reaction plate, and the reaction plate was coated overnight at 4°C. • 1.3.3 Washing: After the coating was completed, the coating solution was discarded, and the reaction plate was washed with the PBST solution by means of transferring 50uL of the PBST solution to the 384-well reaction plate, letting it stand for 5 min, discarding the washing solution, refilling the reaction plate with the PBST solution, and repeating the washing process 3 times. Finally, the reaction plate was tapped dry and the next step of blocking was proceeded with. • 1.3.4 Blocking: 50 uL of the blocking solution was transferred to the 384-well reaction plate and set for 1 h. • 1.3.5 Washing: After the blocking was completed, the blocking solution was discarded, the reaction plate was washed 3 times with the PBST solution according to the method in Step 2, and the reaction plate was tapped dry. • 1.3.6 A 25/10× PARP5A solution was prepared, then 10 µL of the PARP5A solution was transferred to the 384-well reaction plate. For negative control wells, 10 µL of the reaction buffer solution instead was transferred, resulting in the final concentration of PARP5A of 10 nM. • 1.3.7 A 2,000x compound was prepared, 50 nL of the compound was transferred to with echo, 19.95 uL of the reaction buffer solution was added into the compound, mix well, and 5 uL of the mixed compound was transferred to the 384-well reaction plate. • 1.3.8 A 25/10x Biotin-NAD+ solution was prepared, 10uL of the Biotin-NAD+ solution was transferred to the 384-well reaction plate, resulting in a final Biotin-NAD+ concentration of 2uM, and incubated at room temperature for 60 min. • 1.3.9 Washing: After the reaction was completed, the reaction liquid was discarded. The reaction plate was washed 3 times with the PBST solution according to the method in Step 2, and the reaction plate was tapped dry. • 1.3.10 A Stre-HRP solution was prepared by means of diluting it with the blocking solution, 25uL of the Stre-HRP solution was transferred to the reaction plate, and incubated at room temperature for 1 h, resulting the final concentration of Stre-HRP of 0.1 µg/mL. • 1.3.11 Washing: The Stre-HRP solution was discarded, the reaction plate was washed 3 times with the PBST solution according to the method in Step 2, and the reaction plate was tapped dry. • 1.3.12 Color developing: Femto-ECL Substrate A, Femto-ECL Substrate B, and QuantaRed ADHP were mixed in a 50:50:1 ratio.

For another test, the system named is gastric cancer PDX model. The test can be described thus: In-vivo pharmacodynamic study on PDX gastric cancer mice model. Conditions: Fig. 3. As to the method: Experimental procedure: Tumor tissues from gastric cancer patients were used to establish a stable passaged tumor-bearing mice model. In this study, tumor fragments from mice that had been stably passaged three times were used for subcutaneous inoculation. Eight groups were divided for the experiment, with 6 mice in each group. The negative control group (Control) received normal saline at 0.2 mL per mice per administration, given orally once per day; the carboplatin control group (Carboplatin, Car) received 20 mg/kg at 0.2 mL per mice per administration, administered via intraperitoneal injection once every 7 days.

Some results are limits rather than exact numbers.

T1 sequence (Q9UGN5 whole entry): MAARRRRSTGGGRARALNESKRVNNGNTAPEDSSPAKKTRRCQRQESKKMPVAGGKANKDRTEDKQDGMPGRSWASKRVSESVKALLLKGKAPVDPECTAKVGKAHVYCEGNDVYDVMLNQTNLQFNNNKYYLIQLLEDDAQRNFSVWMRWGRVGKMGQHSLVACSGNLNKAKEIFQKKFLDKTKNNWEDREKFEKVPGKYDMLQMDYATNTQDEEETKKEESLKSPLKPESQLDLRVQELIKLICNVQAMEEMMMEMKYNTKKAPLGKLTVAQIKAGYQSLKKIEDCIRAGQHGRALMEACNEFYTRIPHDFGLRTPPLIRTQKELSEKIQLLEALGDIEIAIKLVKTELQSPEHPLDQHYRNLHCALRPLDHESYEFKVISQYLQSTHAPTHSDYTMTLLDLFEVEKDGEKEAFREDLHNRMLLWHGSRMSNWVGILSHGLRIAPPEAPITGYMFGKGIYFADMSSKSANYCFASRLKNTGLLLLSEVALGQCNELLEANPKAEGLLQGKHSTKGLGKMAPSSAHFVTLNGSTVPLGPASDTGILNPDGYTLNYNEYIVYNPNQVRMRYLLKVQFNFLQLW
T2 sequence (O95271 1001-1327): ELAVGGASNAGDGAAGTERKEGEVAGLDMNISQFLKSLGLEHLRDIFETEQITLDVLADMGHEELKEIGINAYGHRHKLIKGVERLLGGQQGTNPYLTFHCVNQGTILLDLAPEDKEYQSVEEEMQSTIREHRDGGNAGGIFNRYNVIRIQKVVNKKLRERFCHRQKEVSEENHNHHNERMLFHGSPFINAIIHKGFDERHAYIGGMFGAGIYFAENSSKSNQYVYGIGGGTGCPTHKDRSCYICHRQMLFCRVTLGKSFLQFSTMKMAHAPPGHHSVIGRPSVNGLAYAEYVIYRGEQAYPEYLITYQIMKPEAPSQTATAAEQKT

For `[2H]C([2H])([2H])C([2H])([2H])c1cc2ncc(CN3CC=C(c4ccc(C(=O)NC)nc4)CC3)cc2[nH]c1=O` [Compound 6, 1'-((7-(ethyl-d5)-6-oxo-5,6-dihydro-1,5-naphthyridin-3-yl)methyl)-N-methyl-1',2',3',6'-tetrahy dro-[3,4'-bipyridine]-6-carboxamide], the IC50 on PARP2 and on PARP5A was greater than 1000 nM throughout. In addition, the “tumor growth in gastric cancer PDX model” value with gastric cancer PDX model (3 mg/kg p.o once per day combined with carboplatin 20 mg/kg i.p once per 7 days) was “significantly inhibit tumor growth”. Moreover, the “inhibitory effect on the gastric cancer PDX model” value in the test with gastric cancer PDX model (0.3, 1, 3 mg/kg p.o once per day combined with carboplatin 20 mg/kg i.p once per 7 days) was “dose-dependent inhibitory effect”.

These data come from patent EP4606801A1, “FUSED HETEROCYCLIC COMPOUND AND USE THEREOF” (Chengdu Zenitar Biomedical Technology Co., Ltd., priority 2022, dated 2024).
